In assay [1] the test system is mammary (MDA-MB-468, ZR-75-1), prostatic (PC-3 and DU-145), and pancreatic (MiaPaCa-2, SW-1990 and Capan-2) cancer cell lines. As to conditions: MDA-MB-468, ZR-75-1, PC-3, DU-145, MiaPaCa-2, SW-1990, Capan-2; cited from earlier work.
Assay [2] concerns MDA-MB-468 human breast cancer xenografts. The assay can be described thus: MDA-MB-468 human breast cancer xenografts in nude mice. In kind it is in vivo. As to conditions: 20 μg daily s.c., 5 weeks. As for the experimental part: Nude mice bearing MDA-MB-468 hormone-independent human breast cancer xenografts were divided into groups of 10 animals each. The treated groups received single daily s.c. injections of 20 μg of GH-RH antagonists. One group was treated with Peptide 1, a second group was treated with MZ-5-156 for comparison. The control group was injected with the vehicle solvent. The treatment was continued for 5 weeks. Tumors were measured once a week and tumor volume was calculated. The mice were sacrificed at the end of experiment and tumor weights were measured.
Background: In xenograft studies the graft and the host belong to different species.

In assay [3] the test system is PC-3 human prostate cancer xenografts. Description: PC-3 human prostate cancer xenografts in nude mice. The format is in vivo. As to conditions: 20 μg daily s.c., 21 days. As for the experimental part:
Male nude mice were implanted s.c. with 3 mm^3 pieces of PC-3 human hormone-independent prostate cancer tissue into both flanks. When tumors reached a volume of approx. 40–50 mm^3 the mice were divided into 3 experimental groups. The first and second groups were treated with peptides Peptide 3 and MZ-5-156, respectively, in single daily s.c. injections of 20 μg for 21 days, while the third group served as control. Tumor volumes were measured at weekly intervals, tumor weights were measured at the end of experiment.

Assay [4] has as its system Estrogen independent MXT mouse mammary tumors. The assay can be described thus: MXT mouse mammary tumors in BDF mice. In kind it is in vivo. As to conditions: 20 μg per day. As for the experimental part: Estrogen independent MXT tumors were transplanted sc. to female BDF mice. One day after transplantation, the mice were divided into groups of 10 animals each, and the treatment was started. The mice in groups 1, 2, 3, and 4 received single injections daily of various GH-RH antagonists sc. at 20 μg dose per day for 18 days. In groups 5 and 6, the peptides were administered by Alzet osmotic pumps releasing a daily amount of 20 μg peptide. Tumors were measured regularly, and tumor volume was calculated. The mice were sacrificed on day 18 and tumor weights were measured.

For another assay, the system named is IGF-II. As to conditions: same cancer cell lines in vitro; cited from earlier work.
In assay [5] the test system is HT-29 human colon cancers. The assay can be described thus: HT-29 human colon cancer xenografts in nude mice. In kind it is in vivo. As to conditions: 20 μg daily sc., 6 weeks. As for the experimental part:
HT-29 human colon cancers were transplanted sc. into male nude mice. 19 days after transplantation, the mice were divided into groups of 10 animals each, and the treatment was started. The mice received single daily injections of various GH-RH antagonists sc. at 20 μg dose per day for 6 weeks. Tumors were measured regularly, and tumor volume was calculated. The mice were sacrificed at the end of experiment and tumor weights were measured.

Marks after values point to notes of the source that are not given here.

The text below walks through data of patent US7026281B1, “Antagonistic analogs of GH-RH inhibiting IGF-I and -II” (The Administrators of the Tulane Educational Fund, priority 1998, dated 2006).

For the substance “[PhAc^0, D-Arg^2, Abu^15, Nle^27]hGH-RH(1–28) Agm [MZ-5-156, reference compound]”, the “Rate of proliferation of cancer cell lines in vitro” value in assay [1] is listed as “significantly inhibited”. In addition, in assay [2] (nude mice), the “Final tumor volume (mm^3)” value is given as 104.4 ± 32.2** mm^3 and the “Tumor weight” value is listed as 77.7 ± 31.7 mg. In assay [2] (groups of 10), the “Number of regressed tumors” value worked out at 3. In assay [3], the “Inhibition in tumor volume” value was determined as 52% and the “Inhibition in tumor weight” value was 46%. Besides, in assay [3] (nude mice), the “Final tumor volume (mm^3)” value was found to be 148.9 ± 41 mm^3 and the “Tumor weight” value worked out at 104.3 ± 27.2 mg. In assay [4] (18 days), the “Inhibitory effect on MXT mouse mammary cancers (in words)” value is recorded as “significant inhibition of tumor growth”. Besides, in assay [4] (single daily sc. injections), the “Tumor volume (mm^3) On day 14” value was found to be 2717 ± 773 mm^3 and the “Tumor volume (mm^3) On day 18” value is 5368 ± 408* mm^3. Moreover, in assay [4] (single daily sc. injections, day 18), the “Tumor weights” value came to 4885 ± 480 mg. Besides, the “Number of surviving mice” value in assay [4] (single daily sc. injections, groups of 10) worked out at 4. In addition, the “Expression of IGF-II mRNA in the cells and concentration of IGF-II secreted into the culture medium” value in the assay with IGF-II is “reduced”. The “Inhibitory effect on HT-29 human colon cancers (in words)” value in assay [5] was “equally strong inhibitory effect”. For the same substance, in assay [5] (nude mice), the “Final tumor volume (mm^3)” value is given as 908 ± 195* mm^3 and the “Tumor weight” value amounted to 1012 ± 174 mg.
